#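 Step 1: Grow cells in 96-well plates. Step 2: Expose to compound for 48 hours at 5 concentrations. Step 3: Interpolate endpoints linearly; if unreached, use highest concentration. GI50: concentration for 50% inhibition of growth.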 Active and inactive are the calls of the source. Rule as the data show it: active = GI50 up to about 1.1 µM and inactive = higher.
# Experiments:
# Assay in all cases: NCI-60 cell line screen, 48 h
# NCI/ADR-RES = test system: NCI/ADR-RES
# SNB-75 = test system: SNB-75
# MOLT-4 = test system: MOLT-4
# MDA-MB-231 = test system: MDA-MB-231
# DU-145 = test system: DU-145
# UACC-257 = test system: UACC-257
# OVCAR-5 = test system: OVCAR-5
# SN12C = test system: SN12C
# SR = test system: SR
# HCT-15 = test system: HCT-15
# SF-295 = test system: SF-295
# ACHN = test system: ACHN
# CAKI-1 = test system: CAKI-1
# UACC-62 = test system: UACC-62
# MCF7 = test system: MCF7
# IGROV-1 = test system: IGROV-1
# NCI-H460 = test system: NCI-H460
# KM12 = test system: KM12
# PC-3 = test system: PC-3
# A549 = test system: A549
# SK-MEL-28 = test system: SK-MEL-28
# UO-31 = test system: UO-31
# K562 = test system: K562
# OVCAR-3 = test system: OVCAR-3
# OVCAR-8 = test system: OVCAR-8
# HT-29 = test system: HT-29
# SK-MEL-5 = test system: SK-MEL-5
# M14 = test system: M14
# HL-60 = test system: HL-60
# SF-539 = test system: SF-539
# SF-268 = test system: SF-268
# T47D = test system: T47D
# HOP-92 = test system: HOP-92
# Malme-3M = test system: Malme-3M
# NCI-H522 = test system: NCI-H522
# OVCAR-4 = test system: OVCAR-4
# SW-620 = test system: SW-620
# NCI-H23 = test system: NCI-H23
# SNB-19 = test system: SNB-19
# COLO 205 = test system: COLO 205
# MDA-N = test system: MDA-N
# HCT-116 = test system: HCT-116
# Hs-578T = test system: Hs-578T
# RXF 393 = test system: RXF 393
# EKVX = test system: EKVX
# RPMI-8226 = test system: RPMI-8226
# MDA-MB-435 = test system: MDA-MB-435
# 786-0 = test system: 786-0
# HOP-62 = test system: HOP-62
# TK-10 = test system: TK-10
# LOX IMVI = test system: LOX IMVI
# U-251 = test system: U-251
# CCRF-CEM = test system: CCRF-CEM
# NCI-H226 = test system: NCI-H226
# SK-MEL-2 = test system: SK-MEL-2
# SK-OV-3 = test system: SK-OV-3
# HCC 2998 = test system: HCC 2998
# A498 = test system: A498
smiles,measurement,setting,value
COc1ccc2nc(/C(N)=C\C#N)ccc2c1,GI50,NCI/ADR-RES,30.8 µM (inactive)
same,GI50,SNB-75,> 100 µM (inactive)
same,GI50,MOLT-4,23.9 µM (inactive)
same,GI50,MDA-MB-231,> 100 µM (inactive)
same,GI50,DU-145,92.5 µM (inactive)
same,GI50,UACC-257,> 100 µM (inactive)
same,GI50,OVCAR-5,> 100 µM (inactive)
same,GI50,SN12C,57.5 µM (inactive)
same,GI50,SR,22.3 µM (inactive)
same,GI50,HCT-15,> 100 µM
same,GI50,SF-295,93.8 µM (inactive)
same,GI50,ACHN,75.2 µM (inactive)
same,GI50,CAKI-1,> 100 µM (inactive)
same,GI50,UACC-62,6.58 µM (inactive)
same,GI50,MCF7,> 100 µM (inactive)
same,GI50,IGROV-1,29.9 µM (inactive)
same,GI50,NCI-H460,> 100 µM (inactive)
same,GI50,KM12,52.1 µM (inactive)
same,GI50,PC-3,43.7 µM (inactive)
same,GI50,A549,47.2 µM (inactive)
same,GI50,SK-MEL-28,> 100 µM (inactive)
same,GI50,UO-31,32.8 µM (inactive)
same,GI50,K562,31.6 µM (inactive)
same,GI50,OVCAR-3,31.6 µM (inactive)
same,GI50,OVCAR-8,36.8 µM (inactive)
same,GI50,HT-29,47.6 µM (inactive)
same,GI50,SK-MEL-5,11.9 µM (inactive)
same,GI50,M14,42.1 µM (inactive)
same,GI50,HL-60,18 µM (inactive)
same,GI50,SF-539,46 µM (inactive)
same,GI50,SF-268,33.7 µM (inactive)
same,GI50,T47D,30.9 µM (inactive)
same,GI50,HOP-92,91.8 µM (inactive)
same,GI50,Malme-3M,> 100 µM (inactive)
same,GI50,NCI-H522,37 µM (inactive)
same,GI50,OVCAR-4,86.7 µM (inactive)
same,GI50,SW-620,> 100 µM (inactive)
same,GI50,NCI-H23,90.2 µM (inactive)
same,GI50,SNB-19,> 100 µM (inactive)
same,GI50,COLO 205,56 µM (inactive)
same,GI50,MDA-N,45.3 µM (inactive)
same,GI50,HCT-116,20.3 µM (inactive)
same,GI50,Hs-578T,1.01 µM (active)
same,GI50,RXF 393,1.89 µM (inactive)
same,GI50,EKVX,0.15 µM (active)
same,GI50,RPMI-8226,37.5 µM (inactive)
same,GI50,MDA-MB-435,32.6 µM (inactive)
same,GI50,786-0,34.7 µM (inactive)
same,GI50,HOP-62,> 100 µM (inactive)
same,GI50,TK-10,59.2 µM (inactive)
same,GI50,LOX IMVI,36 µM (inactive)
same,GI50,U-251,60.5 µM (inactive)
same,GI50,CCRF-CEM,40.3 µM (inactive)
same,GI50,NCI-H226,> 100 µM (inactive)
same,GI50,SK-MEL-2,49.5 µM (inactive)
CC(C)[Si](OC1=C(C(=O)N(C)c2cccc(Cl)c2)CCCC1)(C(C)C)C(C)C,GI50,NCI/ADR-RES,12.6 µM (inactive)
same,GI50,SNB-75,10.4 µM (inactive)
same,GI50,MOLT-4,10.4 µM (inactive)
same,GI50,MDA-MB-231,16 µM (inactive)
same,GI50,DU-145,11.7 µM (inactive)
same,GI50,UACC-257,12.5 µM (inactive)
same,GI50,OVCAR-5,10.1 µM (inactive)
same,GI50,SR,9.16 µM (inactive)
same,GI50,HCT-15,14 µM
same,GI50,SF-295,11 µM (inactive)
same,GI50,ACHN,16.2 µM (inactive)
same,GI50,CAKI-1,13.2 µM (inactive)
same,GI50,UACC-62,14.7 µM (inactive)
same,GI50,MCF7,12.3 µM (inactive)
same,GI50,IGROV-1,17.2 µM (inactive)
same,GI50,NCI-H460,14.1 µM (inactive)
same,GI50,KM12,13.5 µM (inactive)
same,GI50,PC-3,8.61 µM (inactive)
same,GI50,A549,4.41 µM (inactive)
same,GI50,SK-MEL-28,13.6 µM (inactive)
same,GI50,SK-OV-3,16.6 µM (inactive)
same,GI50,UO-31,14.5 µM (inactive)
same,GI50,HCC 2998,17 µM (inactive)
same,GI50,K562,4.94 µM (inactive)
same,GI50,OVCAR-3,14 µM (inactive)
same,GI50,OVCAR-8,16.8 µM (inactive)
same,GI50,HT-29,15.3 µM (inactive)
same,GI50,SK-MEL-5,14.1 µM (inactive)
same,GI50,M14,15.1 µM (inactive)
same,GI50,HL-60,5.61 µM (inactive)
same,GI50,A498,16.9 µM (inactive)
same,GI50,SF-539,17.3 µM (inactive)
same,GI50,SF-268,13.3 µM (inactive)
same,GI50,T47D,2.91 µM (inactive)
same,GI50,HOP-92,12.4 µM (inactive)
same,GI50,Malme-3M,11.7 µM (inactive)
same,GI50,OVCAR-4,12.7 µM (inactive)
same,GI50,SW-620,13.6 µM (inactive)
same,GI50,NCI-H23,11.7 µM (inactive)
same,GI50,SNB-19,16.6 µM (inactive)
same,GI50,COLO 205,15.1 µM (inactive)
same,GI50,MDA-N,17.4 µM (inactive)
same,GI50,Hs-578T,12.5 µM (inactive)
same,GI50,RXF 393,3.4 µM (inactive)
same,GI50,EKVX,15.6 µM (inactive)
same,GI50,RPMI-8226,8.73 µM (inactive)
same,GI50,MDA-MB-435,15.5 µM (inactive)
same,GI50,786-0,18.3 µM (inactive)
same,GI50,HOP-62,17.6 µM (inactive)
same,GI50,TK-10,15.4 µM (inactive)
same,GI50,LOX IMVI,17.3 µM (inactive)
same,GI50,U-251,13.8 µM (inactive)
same,GI50,CCRF-CEM,29.7 µM (inactive)
same,GI50,NCI-H226,15.8 µM (inactive)
same,GI50,SK-MEL-2,15.5 µM (inactive)

# — ChEMBL document CHEMBL1201862, “PubChem BioAssay data set” (2004)
